± gives the expanded uncertainty stated by the source.
Details: 100 kPa, Liquid, Pycnometric method

mass density (273.15 K): 859.9 ± 4.9 kg/m3
mass density (283.15 K): 849.3 ± 4.8 kg/m3
Structure (SMILES): CCCCOCCOCCCC [5,8-dioxadodecane]
